Results on 13 compounds are retold here after US12030878B2 (BRISTOL-MYERS SQUIBB COMPANY, priority 2017, dated 2024).

What all share (format): cell-based
The target of assay [1] is T1, human TLR7 (Homo sapiens, UniProt Q9NYK1).
T1 construct: host or cells: HEK-Blue cells
T1 sequence (Q9NYK1 27-1049): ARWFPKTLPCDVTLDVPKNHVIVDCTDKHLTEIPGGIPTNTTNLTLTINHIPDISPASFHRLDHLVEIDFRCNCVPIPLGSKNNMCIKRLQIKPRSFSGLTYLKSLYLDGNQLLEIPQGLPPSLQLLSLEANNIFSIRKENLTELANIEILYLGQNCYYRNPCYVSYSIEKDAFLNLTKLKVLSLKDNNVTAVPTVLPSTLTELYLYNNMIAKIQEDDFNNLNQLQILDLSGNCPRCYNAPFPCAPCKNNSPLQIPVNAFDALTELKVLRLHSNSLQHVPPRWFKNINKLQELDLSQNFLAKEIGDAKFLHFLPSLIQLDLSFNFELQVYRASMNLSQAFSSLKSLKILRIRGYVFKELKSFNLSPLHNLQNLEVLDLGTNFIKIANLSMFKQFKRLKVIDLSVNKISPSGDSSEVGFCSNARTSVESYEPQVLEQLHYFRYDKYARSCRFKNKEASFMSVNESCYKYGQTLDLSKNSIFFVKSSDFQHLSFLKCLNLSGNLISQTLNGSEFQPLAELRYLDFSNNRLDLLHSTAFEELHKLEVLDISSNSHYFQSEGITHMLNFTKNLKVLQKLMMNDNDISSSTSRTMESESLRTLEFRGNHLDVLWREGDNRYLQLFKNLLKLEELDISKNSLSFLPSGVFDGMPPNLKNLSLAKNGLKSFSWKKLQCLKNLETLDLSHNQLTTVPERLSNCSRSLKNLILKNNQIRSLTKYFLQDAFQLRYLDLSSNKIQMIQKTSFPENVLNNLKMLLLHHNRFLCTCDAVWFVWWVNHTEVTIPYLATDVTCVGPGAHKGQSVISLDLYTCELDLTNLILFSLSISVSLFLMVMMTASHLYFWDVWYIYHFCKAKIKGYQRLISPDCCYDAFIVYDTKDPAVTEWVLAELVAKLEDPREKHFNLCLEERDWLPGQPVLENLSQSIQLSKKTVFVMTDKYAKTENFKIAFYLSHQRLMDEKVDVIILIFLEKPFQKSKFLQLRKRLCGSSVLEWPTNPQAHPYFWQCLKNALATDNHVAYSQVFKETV
Description: TLR7 inhibition reporter assay (HEK-Blue SEAP). The following applies: HEK-Blue cells overexpressing human TLR7, stimulated with gardiquimod 7.5 μM, 22 hour incubation. In a few lines:
(§1)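 SEAP read-out via HEK-Blue Detection medium after 22 h at 37 °C; percent inhibition relative to agonist-plus-DMSO and known-inhibitor wells. Agonists: TLR7 gardiquimod 7.5 μM, TLR8 R848 15.9 μM, TLR9 ODN2006 5 nM. Dose range 0.05 nM–50 μM, 30 min compound pre-treatment at RT.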
A general note: A reporter such as luciferase makes a cellular process visible.

Assay [2] deals with T2, human TLR8 (Homo sapiens, UniProt Q9NR97).
T2 construct: host or cells: HEK-Blue cells
T2 sequence (Q9NR97 27-1041): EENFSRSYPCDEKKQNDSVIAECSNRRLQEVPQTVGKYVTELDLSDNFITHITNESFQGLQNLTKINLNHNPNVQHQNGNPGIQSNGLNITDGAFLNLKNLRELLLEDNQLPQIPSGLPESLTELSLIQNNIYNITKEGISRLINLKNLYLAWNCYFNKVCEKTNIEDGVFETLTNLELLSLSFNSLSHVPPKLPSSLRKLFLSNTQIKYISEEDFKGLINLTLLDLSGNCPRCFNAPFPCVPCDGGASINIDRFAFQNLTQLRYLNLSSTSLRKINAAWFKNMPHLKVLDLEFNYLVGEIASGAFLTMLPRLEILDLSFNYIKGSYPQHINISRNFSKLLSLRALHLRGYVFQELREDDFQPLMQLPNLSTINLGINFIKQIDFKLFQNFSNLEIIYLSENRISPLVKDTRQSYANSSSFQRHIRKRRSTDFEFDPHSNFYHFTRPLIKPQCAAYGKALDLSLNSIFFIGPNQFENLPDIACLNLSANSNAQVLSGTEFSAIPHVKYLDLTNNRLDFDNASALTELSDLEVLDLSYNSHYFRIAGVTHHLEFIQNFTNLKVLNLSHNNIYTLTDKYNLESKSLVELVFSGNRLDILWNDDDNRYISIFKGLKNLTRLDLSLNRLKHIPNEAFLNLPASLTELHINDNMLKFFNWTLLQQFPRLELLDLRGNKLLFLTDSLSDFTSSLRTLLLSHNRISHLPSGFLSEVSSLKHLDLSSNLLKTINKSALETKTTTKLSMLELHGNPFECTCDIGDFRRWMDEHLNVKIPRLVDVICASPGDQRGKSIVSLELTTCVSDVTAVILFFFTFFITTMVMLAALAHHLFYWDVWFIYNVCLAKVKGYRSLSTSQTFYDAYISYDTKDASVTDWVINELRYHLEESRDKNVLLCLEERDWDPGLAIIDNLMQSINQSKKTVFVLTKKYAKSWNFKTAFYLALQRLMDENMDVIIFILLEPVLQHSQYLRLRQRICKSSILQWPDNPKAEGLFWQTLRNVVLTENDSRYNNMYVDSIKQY
Description: TLR8 inhibition reporter assay (HEK-Blue SEAP). The following applies: HEK-Blue cells overexpressing human TLR8, stimulated with R848 15.9 μM, 22 hour incubation. In a few lines: as §1

The target in assay [3] is T3, human TLR9 (Homo sapiens, UniProt Q9NR96).
T3 construct: host or cells: HEK-Blue cells
T3 sequence (Q9NR96 26-1032): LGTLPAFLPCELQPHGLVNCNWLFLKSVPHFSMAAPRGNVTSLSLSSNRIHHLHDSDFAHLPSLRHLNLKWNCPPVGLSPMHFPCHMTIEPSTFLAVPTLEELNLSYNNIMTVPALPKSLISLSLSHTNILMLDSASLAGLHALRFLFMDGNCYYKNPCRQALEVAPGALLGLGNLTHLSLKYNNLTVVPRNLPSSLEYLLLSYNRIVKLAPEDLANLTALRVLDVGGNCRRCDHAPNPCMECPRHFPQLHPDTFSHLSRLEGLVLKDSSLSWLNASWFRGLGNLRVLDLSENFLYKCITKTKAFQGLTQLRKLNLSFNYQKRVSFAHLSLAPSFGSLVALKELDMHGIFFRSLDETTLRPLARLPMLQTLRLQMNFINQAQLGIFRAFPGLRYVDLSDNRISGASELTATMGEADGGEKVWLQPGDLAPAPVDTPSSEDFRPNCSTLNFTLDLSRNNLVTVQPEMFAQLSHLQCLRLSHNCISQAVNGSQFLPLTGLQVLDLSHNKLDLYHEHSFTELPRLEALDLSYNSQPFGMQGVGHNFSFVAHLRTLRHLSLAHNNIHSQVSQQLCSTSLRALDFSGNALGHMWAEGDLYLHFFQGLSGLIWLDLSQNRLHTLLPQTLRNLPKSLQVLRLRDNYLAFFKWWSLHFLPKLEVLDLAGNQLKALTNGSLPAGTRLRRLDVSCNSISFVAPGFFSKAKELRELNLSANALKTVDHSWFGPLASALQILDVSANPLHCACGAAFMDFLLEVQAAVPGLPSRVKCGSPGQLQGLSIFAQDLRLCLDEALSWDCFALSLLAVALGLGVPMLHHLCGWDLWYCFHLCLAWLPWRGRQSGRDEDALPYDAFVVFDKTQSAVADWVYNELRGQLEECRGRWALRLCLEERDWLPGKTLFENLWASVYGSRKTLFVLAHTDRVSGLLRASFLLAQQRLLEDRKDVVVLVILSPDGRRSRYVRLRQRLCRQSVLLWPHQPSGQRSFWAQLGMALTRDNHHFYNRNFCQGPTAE
The experiment in a line: TLR9 inhibition reporter assay (HEK-Blue SEAP). The following applies: HEK-Blue cells overexpressing human TLR9, stimulated with ODN2006 5 nM, 22 hour incubation. In a few lines:
as §1

One may read the IC50 as the concentration at which inhibition is half-maximal. A higher IC50 goes with lower potency. As for `Cc1c(-c2[nH]c3ccc(OC4CCN(C)CC4)cc3c2C(C)C)cn2cnnc2c1C` [Example 53, 6-(3-isopropyl-5-((1-methylpiperidin-4-yl)oxy)-1H-indol-2-yl)-7,8-dimethyl-[1,2,4]triazolo[4,3-a]pyridine], the IC50 worked out at 1.9 nM in assay [1], 3.3 nM in assay [2] and 494 nM in assay [3].
Turning to `Cc1c(-c2[nH]c3ccc(OCC4CCN(C)CC4)cc3c2C(C)C)cn2cnnc2c1C` [Example 54, 6-(3-isopropyl-5-((1-methylpiperidin-4-yl)methoxy)-1H-indol-2-yl)-7,8-dimethyl-[1,2,4]triazolo[4,3-a]pyridine], the values for the half-maximal inhibitory concentration (IC50) in assay [1], in assay [2] and in assay [3] were 1.5 nM, 3.1 nM and 1250 nM, respectively.
For `Cc1c(-c2[nH]c3ccc(OCC4CCN(C(C)C)CC4)cc3c2C(C)C)cn2cnnc2c1C` [Example 55, 6-(3-isopropyl-5-((1-isopropylpiperidin-4-yl)methoxy)-1H-indol-2-yl)-7,8-dimethyl-[1,2,4]triazolo[4,3-a]pyridine], in that order: 2.6 nM, 4.3 nM and 1620 nM.
For `Cc1c(-c2[nH]c3ccc(OC4CCN(C5COC5)CC4)cc3c2C(C)C)cn2cnnc2c1C` [Example 56, 6-(3-isopropyl-5-((1-(oxetan-3-yl)piperidin-4-yl)oxy)-1H-indol-2-yl)-7,8-dimethyl-[1,2,4]triazolo[4,3-a]pyridine] the same measures were 26.3 nM, 19.4 nM and 19300 nM.
For `Cc1c(-c2[nH]c3ccc(OC4CCN(C(C)C)CC4)cc3c2C(C)C)cn2cnnc2c1C` [Example 57, 6-(3-isopropyl-5-((1-isopropylpiperidin-4-yl)oxy)-1H-indol-2-yl)-7,8-dimethyl-[1,2,4]triazolo[4,3-a]pyridine], in that order: 33.6 nM, 14.5 nM and 18600 nM.
As for `Cc1cc(-c2[nH]c3ccc(OCC4CN(C(C)C)C4)cc3c2C(C)C)cn2ncnc12` [Example 58, 6-(3-isopropyl-5-((1-isopropylazetidin-3-yl)methoxy)-1H-indol-2-yl)-8-methyl-[1,2,4] triazolo[1,5-a]pyridine], the IC50 in assay [1] turned out to be 1.4 nM; in assay [2] it was 5.1 nM; in assay [3] it was 2440 nM.
As for `Cc1cc(-c2[nH]c3ccc(OCC4CN(C)C4)cc3c2C(C)C)cn2ncnc12` [Example 59, 6-(3-isopropyl-5-((1-methylazetidin-3-yl)methoxy)-1H-indol-2-yl)-8-methyl-[1,2,4]triazolo[1,5-a]pyridine], the IC50 in assay [1] was 0.5 nM; in assay [2] it was 6.8 nM; in assay [3], 2990 nM.
For `Cc1cc(-c2[nH]c3ccc(OCC4CN(C5COC5)C4)cc3c2C(C)C)cn2ncnc12` [Example 60, 6-(3-isopropyl-5-((1-(oxetan-3-yl)azetidin-3-yl)methoxy)-1H-indol-2-yl)-8-methyl-[1,2,4]triazolo[1,5-a]pyridine], in that order: 1.2 nM, 4.7 nM and 2620 nM.
For `Cc1c(-c2[nH]c3ccc(OCC4CN(C)C4)cc3c2C(C)C)cn2cnnc2c1C` [Example 61, 6-(3-isopropyl-5-((1-methylazetidin-3-yl)methoxy)-1H-indol-2-yl)-7,8-dimethyl-[1,2,4]triazolo[4,3-a]pyridine], in that order: 493 nM, 439 nM and 6360 nM.
`CCCN1CCC(COc2ccc3[nH]c(-c4cn5cnnc5c(C)c4C)c(C(C)C)c3c2)CC1` [Example 62, 6-(3-isopropyl-5-((1-propylpiperidin-4-yl)methoxy)-1H-indol-2-yl)-7,8-dimethyl-[1,2,4]triazolo[4,3-a]pyridine]: the half-maximal inhibitory concentration (IC50) in assay [1] was 1 nM; in assay [2] it was 6 nM; in assay [3] it was 1290 nM.
For `CCCN1CCC(Oc2ccc3[nH]c(-c4cn5cnnc5c(C)c4C)c(C(C)C)c3c2)CC1` [Example 63, 6-(3-isopropyl-5-((1-propylpiperidin-4-yl)oxy)-1H-indol-2-yl)-7,8-dimethyl-[1,2,4]triazolo[4,3-a]pyridine] the same measures were 2.1 nM, 2.5 nM and 2190 nM.
As to `Cc1cc(-c2[nH]c3ccc(OC4CCC(N(C)C)CC4)cc3c2C(C)C)cn2ncnc12` (stereo not drawn) [Example 64, 4-((3-isopropyl-2-(8-methyl-[1,2,4]triazolo[1,5-a]pyridin-6-yl)-1H-indol-5-yl)oxy)-N,N-dimethylcyclohexan-1-amine], the IC50 turned out to be 0.7 nM in assay [1], 10.6 nM in assay [2] and 2570 nM in assay [3].
As for `COc1cc(-c2[nH]c3ccc(OC4CCN(C)CC4)cc3c2C(C)C)cn2ncnc12` [Example 65, 6-(3-isopropyl-5-((1-methylpiperidin-4-yl)oxy)-1H-indol-2-yl)-8-methoxy-[1,2,4]triazolo[1,5-a]pyridine], the 50% inhibitory concentration (IC50) in assay [1] is 0.3 nM; in assay [2], 0.5 nM; in assay [3] it was 1750 nM.
